For one assay, the system named is murine tumor. The experiment in a line: murine tumor volume: gemcitabine and interferon beta gene therapy vector (FIG. 21). The class given is in vivo. Conditions: after 40 days; placebo about 1400.
Assay [1] concerns malignant pleural mesothelioma. Conditions: in vivo; cited from earlier work.
A further assay relates to SKOV-3m cells. The experiment in a line: intraperitoneal ovarian cancer xenograft model in mice. Type of assay: in vivo, Balb/cA-nu female nude mice. Conditions: for mean survival: control group 15±1 days.

Procedure for SKOV-3m cells: Gene therapy was also combined with chemotherapy. Therapy was initiated when sizable tumors were confirmed in magnetic resonance imaging (MRI). Adenovirus-mediated gene transfer was performed intravenously (2×10^9 pfu), while chemotherapy and monoclonal anti-VEGF-antibody were dosed intraperitoneally. […] Effectiveness was assessed by survival time and surrogate measures such as sequential MRI, immunohistochemistry, microvessel density and tumor growth.
Cells were cultured in McCoy's 5A medium (Gibco, Invitrogen, Life Technologies). Cancer cells were tested to be mycoplasma free. Before in vivo inoculation, the cells were trypsinized and counted.
Chemotherapy and anti-VEGF-antibody: Carboplatin 10 mg/ml infusion concentrate was used at a dose of 80 mg/kg for the primary treatment of Balb/cA-nu mice. The dose per Balb/cA-nu was 1.6 mg/500 μl NaCl 0.9%. Paclitaxel 6 mg/ml concentrate was used at a dose of 20 mg/kg. The dose per nude mouse was 320 μg/500 μl NaCl 0.9%. […] It was injected every fifth day.
Viral vectors: Adenoviral vectors encoding sVEGFR-1-IgG fusion protein, sVEGFR-2-IgG fusion protein, sVEGFR-3-IgG fusion protein and LacZ (AdLacZ) as a control vector were used for the study.
Animal model: Eight to 10-weeks-old (n ¼ 80) Balb/cA-nu female nude mice were used for the studies. Ovarian carcinoma was produced by inoculating 1×10^7 SKOV-3m cells into the peritoneal cavity of nude mice with a 22 G needle. Development of the ovarian cancerous tumors was followed by sequential MRI. When the first solid, measurable tumor was detected in MRI, gene transfer or other treatment was started on the following day. Mice were randomly divided into six groups:
Tumors developed within 3 weeks after the inoculation of the tumor cells. The presence of all tumors was verified by MRI (magnetic resonance imaging) before starting the therapy. Tumors were observed weekly until the death of the mice. Plasma samples were collected 6, 13, 20 and 27 days after the treatment. Gene transfer was performed intravenously (i.v.) via tail vein in the final volume of 200 ll in 0.9% saline.
MRI was done weekly after gene transfer or treatment, and tumor volumes were measured. The overall follow-up time lasted until the appearance of significant symptoms necessitating sacrifice or to the death. At the time of death, all tumor tissue, liver, spleen, kidneys and lungs were harvested, and tumor masses were weighed. Ascites fluid was collected in a syringe. The mice were kept in a pathogen-free isolated unit at the National Experimental Animal Center of the University of Eastern Finland. Food, water and sawdust bedding were autoclaved, and the mice received chow and water ad libitum.
Photographs of histological sections were taken and processed using an Olympus AX70 microscope (Olympus Optical, Japan) and analySIS (Soft Imaging System, GmbH, Germany) and PhotoShop (Adobe) softwares. Microvessel density (MVD) and total microvascular area (%) of the tumors (TVA) were measured from CD34-immunostained sections using analySIS software at 100× magnification in a blinded manner (FIG. 36). Six to 10 different fields, which represented maximum MVD areas, were selected from each tumor. Necrotic areas were avoided. In addition, the total number of LYVE-1-positive lymphatic vessels per section was counted. Mean 6 SEM of the measurements are reported. […]
Source text for murine tumor: FIG. 21 is a chart comparing murine tumor volume of control; gemcitabine (administered day=0); interferon beta gene therapy vector (administered day=0); and interferon beta gene therapy vector (day=0) followed by gemcitabine (day=3).

In the case of `Nc1ccn([C@@H]2O[C@H](CO)[C@@H](O)C2(F)F)c(=O)n1` [gemcitabine], the average tumor size in the assay with murine tumor came to 1200 mm^3.
`N.N.[Cl][Pt][Cl]` [cisplatin]: the median survival time in assay [1] is recorded as 9 months.
Turning to bevacizumab, in the assay on SKOV-3m cells (mouse, in vivo), the “effect on angiogenesis by micro-vessel measurements” value is “did not have any effect”; the “effect on survival, tumor volume or mean tumor weight” value was “did not have any significant effect”; the “effect on the survival” value is “did not have any significant effect”.
As for `N.N.O=C([O-])C1(C(=O)[O-])CCC1.[Pt+2]` [carboplatin], in the assay with SKOV-3m cells, the mean survival is 13 ± 1 days.
The same measure, in the same setting: then `CC(=O)O[C@H]1C(=O)[C@@]2(C)[C@H]([C@H](OC(=O)c3ccccc3)[C@]3(O)C[C@H](OC(=O)[C@H](O)[C@@H](NC(=O)c4ccccc4)c4ccccc4)C(C)=C1C3(C)C)[C@]1(OC(C)=O)CO[C@@H]1C[C@@H]2O` [paclitaxel], with 15 ± 1 days.
